From US20170020909A1, “METHODS OF TREATING GLAUCOMA USING AMP-ACTIVATED PROTEIN KINASE (AMPK) ACTIVATORS” (Massachusetts Eye and Ear Infirmary, priority 2014, published 2017)

How the values were obtained:
collagen I = experiment: Immunoblot of collagen I in conditioned media of human TM cells; type: cell-based; conditions: 24 hours
Description: FIGS. 5A-E. AICAR suppresses ECM proteins in primary human TM cells under basal and TGF-β2 stimulatory conditions. (A) Representative immunoblots of ECM proteins from conditioned media (CM) of human TM cells treated for 24 hours with PBS vehicle or 0.5 mM AICAR and (B) integrated band intensities calculated from those immunoblots. (C) Representative immunoblots of ECM proteins from CM of human TM cells under stimulation with 2.5 ng/mL TGF-β2. Cells were pre-incubated for 1 hour with PBS or 0.5 mM AICAR prior to full 24-hour treatment. (D) Mean integrated band intensities. Data in panels B and D are expressed as mean±SEM (*p<0.05 vs. PBS vehicle by student t-test; n=5-7). (E) Representative 10% acrylamide gels stained with Coomassie Brilliant Blue as a loading control. […]
At the conclusion of each experiment for matricellular and ECM protein detection, conditioned media (CM) from TM cell cultures was harvested and centrifuged at 5000 rpm for 10 minutes at 4° C. The supernatant was then concentrated (Amicon Ultra-4 Filter Unit, 10 kDa; Millipore, Milford, Mass.), and protein content quantified using the DC Protein Assay kit adhering to manufacturer's protocols (Bio-Rad, Hercules, Calif.). […] Samples were then centrifuged at 14,000 rpm for 15 minutes at 4° C. and protein content quantified. […]

[1] = test system: perfused ex vivo human anterior segments; experiment: IOP in constant-flow-perfused ex vivo human anterior segments; conditions: 2.5 μL of 200 mM AICAR in 1 mL of ex vivo media, by day 7, mean±SEM, n=3
Text: The effects of AICAR on IOP in perfused constant flow ex vivo human anterior segments was examined using well-established and validated methods (see, e.g., Oh et al., Invest. Ophthalmol. Vis. Sci. 2013; 54:3309-19; Ethier et al., Invest. Ophthalmol. Vis. Sci. 2004; 45:1863-70). Briefly, all donor pairs of eyes were obtained from National Disease Research Interchange (NDRI, Philadelphia, Pa.) according to the provisions of the Declaration of Helsinki for research involving human tissue. Eyes were obtained within 24 hours after death. No donors were known to have a history of glaucoma or other ocular disorder. Human perfused anterior segment cultures were prepared by scoring the surface of the eye around ora serrata with a surgical blade, and the full-thickness incision was completed around the eye with scissors. The vitreous, lens, and iris were removed. […] IOP was monitored with a pressure transducer (Argon Medical Devices, Athens, Tex.) and were recorded with an automated computerized system (National Instruments, Austin, Tex.) every second and averaged each hour. […] Effects of AICAR treatment on IOP are expressed as the percentage change in IOP (compared to baseline). Values are expressed as mean±SEM, and paired two-tailed student t-tests are applied to determine significance of difference in IOP between control and experimental groups at selected time intervals. […]

With `NC(=O)c1ncn([C@@H]2O[C@H](CO)[C@@H](O)[C@H]2O)c1N` [AICAR, 5-Aminoimidazole-4-carboxamide riboside] the “decrease in collagen I (mean integrated band intensity)” value (collagen I; 0.5 mM AICAR vs PBS vehicle, basal) was 70%, the “decrease in collagen I level” value (collagen I; 0.5 mM AICAR, under TGF-β2 stimulation with 2.5 ng/mL) was 26% and the “mean decrease in IOP compared with paired opposite eye controls” value [1] was 18.54±1.78%.
